These results are taken from ChEMBL document CHEMBL1128949, “Novel tricyclic aminoacetyl and sulfonamide inhibitors of Ras farnesyl protein transferase” (Bioorg Med Chem Lett, 1996).

As a reminder, the pIC50 is the negative decadic logarithm of the IC50, by convention in mol/L. Low readings indicate a large IC50, high ones a small IC50.

pIC50: −log10 of the molar value.

The first assay deals with T1, Protein farnesyltransferase (Homo sapiens, UniProt P49354+P49356). The experiment in a line: Inhibitory activity against Protein farnesyltransferase (Inactive). It counts as protein-complex assay.
With `CCCCCCCCCCCS(=O)(=O)N1CCC(=C2c3ccc(Cl)cc3CCc3cccnc32)CC1`, the IC50 entry is given as “Not Active”.

On to `CCCCCCCCCCS(=O)(=O)N1CCC(=C2c3ccc(Cl)cc3CCc3cccnc32)CC1`, for which the IC50 result is on record as “Not Active”.

Another assay deals with T1, Protein farnesyltransferase. The experiment in a line: Inhibitory activity against protein farnesyltransferase. It counts as protein-complex assay.
On to `O=C(CC[C@H](C(=O)N1CCC(=C2c3ccc(Cl)cc3CCc3cccnc32)CC1)N1C(=O)c2ccccc2C1=O)Nc1ccccc1`, for which the pIC50 was 5.32.

In turn, `O=[N+]([O-])c1ccc(S(=O)(=O)N2CCC(=C3c4ccc(Cl)cc4CCc4cccnc43)CC2)cc1` showed a pIC50 of less than 4.92.

`CN(C)S(=O)(=O)N1CCC(=C2c3ccc(Cl)cc3CCc3cccnc32)CC1` gave a pIC50 of 5.72.

Regarding `O=C([C@@H](Cc1ccccc1)N1C(=O)c2ccccc2C1=O)N1CCC(=C2c3ccc(Cl)cc3CCc3cccnc32)CC1`, the pIC50 is less than 5.00.

As to `O=S(=O)(c1ccc2ccccc2c1)N1CCC(=C2c3ccc(Cl)cc3CCc3cccnc32)CC1`, the pIC50 was less than 4.92.

Compound `O=S(=O)(Cc1ccccc1)N1CCC(=C2c3ccc(Cl)cc3CCc3cccnc32)CC1` had a pIC50 of 6.00.

For the compound `O=C(Cc1ccccc1)NCC(=O)N1CCC(=C2c3ccc(Cl)cc3CCc3cccnc32)CC1`, the negative-log IC50 (pIC50) is 5.08.

In turn, `CCCCS(=O)(=O)N1CCC(=C2c3ccc(Cl)cc3CCc3cccnc32)CC1` showed a negative logarithm of the IC50 (pIC50) of 5.32.

`O=C([C@@H](Cc1c[nH]cn1)N1C(=O)c2ccccc2C1=O)N1CCC(=C2c3ccc(Cl)cc3CCc3cccnc32)CC1` gave a pIC50 of 5.44.

For `COc1ccc(CSC[C@@H](NC(=O)OC(C)(C)C)C(=O)N2CCC(=C3c4ccc(Cl)cc4CCc4cccnc43)CC2)cc1`, the pIC50 is 5.52.

As for `COC(=O)c1ccccc1S(=O)(=O)N1CCC(=C2c3ccc(Cl)cc3CCc3cccnc32)CC1`, the negative logarithm of the IC50 (pIC50) is 4.97.

Compound `CCCCCCCCS(=O)(=O)N1CCC(=C2c3ccc(Cl)cc3CCc3cccnc32)CC1` gave a pIC50 of less than 4.92.

In turn, `CCS(=O)(=O)N1CCC(=C2c3ccc(Cl)cc3CCc3cccnc32)CC1` gave a pIC50 of 5.28.

`O=C(CNCc1ccccc1)N1CCC(=C2c3ccc(Cl)cc3CCc3cccnc32)CC1` gave a pIC50 of 5.02.

Take `C=CS(=O)(=O)N1CCC(=C2c3ccc(Cl)cc3CCc3cccnc32)CC1`: the pIC50 was 6.00.

`CC(C)C[C@H](C(=O)N1CCC(=C2c3ccc(Cl)cc3CCc3cccnc32)CC1)N1C(=O)c2ccccc2C1=O` had a pIC50 of less than 5.00.

The compound `O=C(CN1C(=O)c2ccccc2C1=O)N1CCC(=C2c3ccc(Cl)cc3CCc3cccnc32)CC1` had a negative logarithm of the IC50 (pIC50) of 6.18.

As to `NCC(=O)N1CCC(=C2c3ccc(Cl)cc3CCc3cccnc32)CC1`, the pIC50 was 4.65.

Take `O=C(O)c1ccccc1S(=O)(=O)N1CCC(=C2c3ccc(Cl)cc3CCc3cccnc32)CC1`: the pIC50 was less than 4.96.

Regarding `O=S(=O)(c1cccs1)N1CCC(=C2c3ccc(Cl)cc3CCc3cccnc32)CC1`, the pIC50 is 4.89.

As for `CC1(C)C2CCC1(CS(=O)(=O)N1CCC(=C3c4ccc(Cl)cc4CCc4cccnc43)CC1)C(O)C2` (centres undefined), the pIC50 was 5.09.

`O=C(CNC(c1ccccc1)(c1ccccc1)c1ccccc1)N1CCC(=C2c3ccc(Cl)cc3CCc3cccnc32)CC1` gave a pIC50 of less than 5.00.

`CC1(C)C2CCC1(CS(=O)(=O)N1CCC(=C3c4ccc(Cl)cc4CCc4cccnc43)CC1)C(=O)C2` (centres undefined): the negative-log IC50 (pIC50) is 4.94.

In the case of `O=C(CN1C(=O)c2ccccc2S1(=O)=O)N1CCC(=C2c3ccc(Cl)cc3CCc3cccnc32)CC1`, the pIC50 is 5.70.

Consider `CS(=O)(=O)N1CCC(=C2c3ccc(Cl)cc3CCc3cccnc32)CC1`, for which the pIC50 is 5.72.

In turn, `COc1ccc(CSC[C@@H](N)C(=O)N2CCC(=C3c4ccc(Cl)cc4CCc4cccnc43)CC2)cc1` showed a pIC50 of 5.20.

`C[C@H](C(=O)N1CCC(=C2c3ccc(Cl)cc3CCc3cccnc32)CC1)N1C(=O)c2ccccc2C1=O` showed a pIC50 of 5.34.

`CSCC[C@H](C(=O)N1CCC(=C2c3ccc(Cl)cc3CCc3cccnc32)CC1)N1C(=O)c2ccccc2C1=O` had a pIC50 of 5.33.

The compound `CC(C)(C)OC(=O)NCC(=O)N1CCC(=C2c3ccc(Cl)cc3CCc3cccnc32)CC1` showed a pIC50 of 5.17.

Consider `O=C(N[C@H](Cc1ccc(O)cc1)C(=O)N1CCC(=C2c3ccc(Cl)cc3CCc3cccnc32)CC1)OCc1ccccc1`, for which the pIC50 was 5.92.

Consider `O=C(NCC(=O)N1CCC(=C2c3ccc(Cl)cc3CCc3cccnc32)CC1)c1ccccc1`, for which the pIC50 was 5.06.

Regarding `O=C(NCC(=O)N1CCC(=C2c3ccc(Cl)cc3CCc3cccnc32)CC1)OCc1ccccc1`, the pIC50 was 5.07.
